Test: in vitro
Conditions: African green monkey

CS(=O)(=O)OCCCCOS(C)(=O)=O [busulfan]
viability: ~82%

Source: patent publication US11110138B2 (priority 2012, dated 2021)
